From US10034886B2, “GLP-1 receptor modulators” (Celgene International II SÀRL, priority 2014, dated 2018) come the findings set out here.

Where two headings read alike, the source gives them in different places. A value given as a limit tells only on which side of the number the result lay.

The target of the experiment is T1, GLP-1R (Homo sapiens, UniProt P43220).
T1 construct: host or cells: GLP-1R CRE-bla CHO-K1 cells
Put plainly: EC20 GLP-1(9-36) PAM cAMP assay: dose response of compound in the presence of fixed concentration of GLP-1(9-36). It is filed as cell-based. The note with it: GLP-1R CRE-bla CHO-K1 cells, read-out: EC20 GLP-1(9-36) PAM EC50. Put shortly:
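GLP-1R CRE-bla CHO-K1 cells treated 30 min at 37 °C with 12-point compound dose response plus fixed EC20 GLP-1(9-36), with IBMX, in HBSS/HEPES/0.1% BSA pH 7.4. Total cAMP measured by luminescent detection against standard curve; EC50 and Emax from non-linear regression.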

Where [1] appears, read: compound dose response with fixed concentration of GLP-1(9-36).
The mark [2] stands for this setting: dose response of compound in presence of fixed concentration of GLP-1(9-36).

T1 sequence (P43220 24-463): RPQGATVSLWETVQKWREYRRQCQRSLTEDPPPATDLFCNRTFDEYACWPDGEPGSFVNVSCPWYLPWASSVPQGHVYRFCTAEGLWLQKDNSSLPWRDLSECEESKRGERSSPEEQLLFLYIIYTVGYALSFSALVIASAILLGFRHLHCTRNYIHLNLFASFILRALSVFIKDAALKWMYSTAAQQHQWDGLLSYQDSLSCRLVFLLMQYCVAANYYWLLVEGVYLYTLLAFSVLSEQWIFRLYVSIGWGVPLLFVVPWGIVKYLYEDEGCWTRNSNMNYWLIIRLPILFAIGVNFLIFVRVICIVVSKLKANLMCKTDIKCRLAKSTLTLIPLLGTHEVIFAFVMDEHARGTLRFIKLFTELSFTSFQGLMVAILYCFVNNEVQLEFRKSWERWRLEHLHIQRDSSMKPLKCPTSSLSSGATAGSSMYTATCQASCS
T1 sequence (P01275 100-127 partner limits assumed): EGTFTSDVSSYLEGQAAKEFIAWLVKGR

Consider `CCCOc1ccc(C2CCN(c3cnc(-c4ccc(C[C@H](NC(=O)c5ccc(C(C)(C)C)s5)C(=O)N5CC(C(=O)O)C5)cc4)nc3)CC2)cc1` [Compound 1494], for which the concentration for a half-maximal effect (EC50) (as a rule, the concentration giving half of the maximal effect) under setting [1] is 0.8 to 2.5 µM.
On to `CCCCOCCOc1ccc(-c2cnc(-c3ccc(C[C@H](NC(=O)c4ccc(C(C)(C)C)cc4)C(=O)NCCC(=O)O)cc3)nc2)cc1` [Compound 457], for which the half-maximal effective concentration (EC50) under setting [2] was in the range of 2.5 to 5 µM.
Same read-out and setting: to `CCCCOc1c(OC)ccc(-c2cnc(-c3ccc(C[C@H](NC(=O)c4ccc(C(C)(C)C)s4)C(=O)N[C@H](C)C(=O)O)cc3)nc2)c1F` [Compound 1022] belongs 2.5 to 5 µM; to `CCCCCCCOc1ccc(-c2cnc(-c3ccc(C[C@H](NC(=O)c4ccc(C(C)(C)C)s4)C(=O)NC4CCNC4)cc3)nc2)cc1` (stereo partly shown) [Compound 984], 2.5 to 5 µM.
In the case of `CCCCCCCOc1ccc(-c2cnc(-c3ccc(C[C@H](NC(=O)c4ccc(C(C)(C)C#N)cc4)C(=O)N4CC[C@H](C(=O)O)C4)cc3)nc2)cc1` [Compound 860], the EC50 under setting [2] lay within 0.8 to 2.5 µM.
Still for that read-out and setting: with `C[C@@H](NC(=O)[C@H](Cc1ccc(-c2ncc(-c3ccc(C(C)(C)C#N)cc3F)cn2)cc1)NC(=O)c1ccc(C(C)(C)C)s1)C(=O)O` [Compound 1018] the figure was 5 to 10 µM.
Consider `CC(C)(C)c1ccc(-c2cnc(-c3ccc(C[C@H](NC(=O)c4ccc(C(C)(C)C)s4)C(=O)NC(C(=O)O)C(O)c4ccccc4)cc3)nc2)cc1` (stereo partly shown) [Compound 932], for which, under setting [2], the EC50 was in the range of 2.5 to 5 µM.
On the same count and under the same terms, to `CCCCCCCOc1ccc(-c2cnc(-c3ccc(C[C@H](NC(=O)c4ccc(C(C)(C)C)cc4)C(=O)N4CC(OC)CC4C(=O)O)cc3)nc2)cc1` (stereo partly shown) [Compound 624] belongs < 0.8 µM.
On to `CC[C@H]1CC[C@H](c2ccc(-c3cnc(-c4ccc(C[C@H](NC(=O)c5ccc(Cl)cc5)C(=O)O)cc4)nc3)cc2)CC1` [Compound 1386], for which the EC50 under setting [1] was in the range of 0.8 to 2.5 µM.
Regarding `CCC[C@H]1CC[C@H](C2CCN(c3cnc(-c4ccc(CC(NC(=O)c5ccc(C(C)(C)C)s5)C(=O)NS(=O)(=O)CC5CC5)cc4)nc3)CC2)CC1` (stereo partly shown) [Compound 1542], the half-maximal effective concentration (EC50) under setting [1] is < 0.8 µM.
For the compound `CCCCCCCOc1ccc(-c2cnc(-c3ccc(C[C@H](NC(=O)c4ccc(C(C)(C)C)s4)C(=O)NC(C(=O)O)c4cccc(OC)c4)cc3)nc2)cc1` (stereo partly shown) [Compound 629], the concentration giving a half-maximal response (EC50) under setting [2] was in the range of 0.8 to 2.5 µM.
The same measure, in the same setting: with `CC(C)(C)c1ccc(C(=O)N[C@@H](Cc2ccc(-c3ncc(-c4ccc(OCC5CCCCC5)cc4)cn3)cc2)C(=O)NC(C(=O)O)C(O)c2ccccc2)s1` (stereo partly shown) [Compound 936] the figure was 0.8 to 2.5 µM.
As for `CCC[C@H]1CC[C@H](C2CCN(c3cnc(-c4ccc(C[C@H](NC(=O)c5ccc(C(C)(C)C)s5)C(=O)N5CCC(C(=O)O)CC5)cc4)nc3)CC2)CC1` [Compound 1457], the EC50 under setting [1] was < 0.8 µM.
Turning to `CCCCCCCOc1ccc(-c2cnc(-c3ccc(C[C@H](NC(=O)c4ccc(C(C)(C)C)s4)C(=O)NC(C(=O)O)C(O)c4ccc(Cl)cc4)cc3)nc2)cc1` (stereo partly shown) [Compound 901], the EC50 under setting [2] was 0.8 to 2.5 µM.
For the compound `CCOc1ccc(-c2ccc(-c3cnc(-c4ccc(C[C@H](NC(=O)c5ccc(C(C)(C)C)s5)C(=O)N5CC(C(=O)O)C5)cc4)nc3)c(F)c2)cc1` [Compound 1330], the EC50 under setting [1] is < 0.8 µM.
Turning to `CC(C)(C)c1ccc(C(=O)N[C@@H](Cc2ccc(-c3ncc(-c4ccc(-c5ccc(C(F)(F)F)c(F)c5F)cc4F)cn3)cc2)C(=O)N2CC(C(=O)O)C2)s1` [Compound 1216], under setting [1], the EC50 was < 0.8 µM.
On the same count and under the same terms, with `C[C@@H](NC(=O)[C@H](Cc1ccc(-c2ncc(C#Cc3ccc(F)cc3)cn2)cc1)NC(=O)c1ccc(C(C)(C)C)s1)C(=O)O` [Compound 1275] the figure was 0.8 to 2.5 µM; with `CCCCc1ccc(C2CCN(c3cnc(-c4ccc(C[C@H](NC(=O)c5ccc(C(C)(C)C)s5)C(=O)N5CC(C(=O)O)C5)cc4)nc3)C2)cc1` (stereo partly shown) [Compound 1505], 0.8 to 2.5 µM.
For `CCCCCCCOc1ccc2nc(-c3ccc(C[C@H](NC(=O)c4ccc(C(C)(C)C)cc4)C(=O)N[C@H](C)C(=O)O)cc3)ccc2c1` [Compound 806], the EC50 under setting [2] fell in the range of 0.8 to 2.5 µM.
On the same count and under the same terms, to `CCCCCCCOc1ccc(-c2cnc(-c3ccc(C[C@H](NC(=O)c4ccc(C(C)(C)C)s4)C(=O)NC(C)(C)C(=O)O)cc3)nc2)cc1` [Compound 406] belongs 0.8 to 2.5 µM; to `CCCCCCCOc1ccc(-c2cnc(-c3ccc(C[C@H](NC(=O)c4ccc(C(C)(C)C)cc4)C(=O)NC(CCCC(=O)O)C(=O)O)cc3)nc2)cc1` (stereo partly shown) [Compound 573], 0.8 to 2.5 µM.
Turning to `CC[C@H]1CC[C@H](c2ccc(-c3cnc(-c4ccc(C[C@H](NC(=O)c5ccc(C(C)C)cc5)C(=O)O)cc4)nc3)cc2)CC1` [Compound 1387], the half-maximal effective concentration (EC50) under setting [1] was < 0.8 µM.
Consider `CCCCCCCOc1ccc(-c2cnc(-c3ccc(C[C@H](NC(=O)c4ccc(C(C)(C)C)cc4)C(=O)N4CC[C@H](N)[C@@H](C(=O)O)C4)cc3)nc2)cc1` [Compound 582], for which the EC50 under setting [2] was in the range of 0.8 to 2.5 µM.
The same measure, in the same setting: to `CCCCCCCOc1c(C)cc(-c2cnc(-c3ccc(C[C@H](NC(=O)c4ccc(C(C)(C)C)cc4)C(=O)NCCC(=O)O)cc3)nc2)cc1C` [Compound 705] belongs 0.8 to 2.5 µM.
The same measure, in the same setting: with `CCCCCCCOc1ccc(-c2cnc(-c3ccc(C[C@H](NC(=O)c4ccc(C(C)(C)C)cc4)C(=O)N[C@@H](CC(=O)N[C@@H](C)C(=O)O)C(=O)O)cc3)nc2)cc1` [Compound 483] the figure was 0.8 to 2.5 µM.
Take `COc1ccc(-c2cnc(-c3ccc(C[C@H](NC(=O)c4ccc(C(C)(C)C)s4)C(=O)N4CC(C(=O)O)C4)cc3)nc2)cc1` [Compound 784]: the concentration for a half-maximal effect (EC50) under setting [2] fell in the range of 5 to 10 µM.
With `CC[C@H]1CC[C@@H](c2ccc(-c3cnc(-c4ccc(C[C@H](NC(=O)c5ccc(C(C)(C)C)s5)C(=O)O)cc4)nc3)c(F)c2)CC1` [Compound 1362], under setting [1], the EC50 was < 0.8 µM.
In the case of `C[C@@H](NC(=O)[C@H](Cc1ccc(-c2ncc(-c3ccc(-c4ccccc4)cc3)cn2)cc1)NC(=O)c1ccc(C(C)(C)C)s1)C(=O)O` [Compound 741], the EC50 under setting [2] lay in the range of 2.5 to 5 µM.
Consider `CC(C)(C)c1ccc(C(=O)N[C@@H](Cc2ccc(-c3ncc(-c4ccc([C@H]5CC[C@@H](C(F)(F)F)CC5)cc4)cn3)cc2)C(=O)N2CC(C(=O)O)C2)s1` [Compound 1185], for which, under setting [2], the EC50 is < 0.8 µM.
On the same count and under the same terms, to `CCCCCCCOc1ccc(-c2cnc(-c3ccc(C[C@H](NC(=O)c4ccc(C(C)(C)C)cc4)C(=O)N4C[C@H](OC(C)(C)C)C[C@H]4C(=O)O)cc3)nc2)cc1` [Compound 623] belongs 0.8 to 2.5 µM.
Regarding `CC1(C)CCC(C2CCN(c3cnc(-c4ccc(C[C@H](NC(=O)c5ccc(C(C)(C)C)s5)C(=O)N5CC(C(=O)O)C5)cc4)nc3)CC2)CC1` [Compound 1424], under setting [1], the EC50 was < 0.8 µM.
In the case of `CCCCCCCOc1ccc(-c2cnc(-c3ccc(C[C@H](NC(=O)c4ccc(C(C)(C)C)cc4)C(=O)N[C@H](CN)C(=O)O)cc3)nc2)cc1` [Compound 465], the EC50 under setting [2] is 0.8 to 2.5 µM.
On the same count and under the same terms, with `CC(C)CCCOc1ccc(-c2cnc(-c3ccc(C[C@H](NC(=O)c4ccc(C(C)(C)C)s4)C(=O)N4CC(C(=O)O)C4)cc3)nc2)cc1` [Compound 798, (S)-1-(2-(5-(tert-butyl)thiophene-2-carboxamido)-3-(4-(5-(4-((4-methylpentyl)oxy)phenyl)-pyrimidin-2-yl)phenyl)propanoyl)azetidine-3-carboxylic acid] the figure was 0.8 to 2.5 µM; with `CCCCCCCOc1ccc(-c2cnc(-c3ccc(C[C@H](NC(=O)c4ccc(C(C)(C)C)cc4)C(=O)NC(CC(=O)O)c4ccccc4O)cc3)nc2)cc1` (stereo partly shown) [Compound 581], 0.8 to 2.5 µM.
Consider `CC[C@H]1CC[C@H](c2ccc(-c3cnc(-c4ccc(C[C@H](NC(=O)Cc5ccc(C(C)(C)C)s5)C(=O)N5CC(C(=O)O)C5)cc4)nc3)cc2)CC1` [Compound 1279], for which, under setting [1], the EC50 lay in the range of 2.5 to 5 µM.
With `CCCCCCCOc1ccc(-c2cnc(-c3ccc(C[C@H](NC(=O)c4ccc(C(C)(C)C)s4)C(=O)N4CC(c5nn[nH]n5)C4)cc3)nc2)cc1` [Compound 978], the EC50 under setting [2] was in the range of 0.8 to 2.5 µM.
Still for that read-out and setting: to `CC(C)CCCOc1ccc(-c2cnc(-c3ccc(C[C@H](NC(=O)c4ccc(C(C)(C)C)s4)C(=O)N4CC[C@H](C(=O)O)C4)cc3)nc2)cc1` [Compound 773] belongs 0.8 to 2.5 µM.
As for `CCC(CC)Oc1ccc(-c2ccc(-c3cnc(-c4ccc(C[C@H](NC(=O)c5ccc(C(C)(C)C)s5)C(=O)N[C@H](C)C(=O)O)cc4)nc3)cc2)cc1` [Compound 1298], the EC50 under setting [1] is < 0.8 µM.
With `CCCCCCCOc1ccc(-c2cnc(-c3ccc(C[C@H](NC(=O)c4ccc(C(C)(C)C)s4)C(=O)N4CC(CN)(C(=O)O)C4)cc3)nc2)cc1` [Compound 1280], the EC50 under setting [1] was < 0.8 µM.
In the case of `CCCCCCCOc1ccc(-c2cnc(-c3ccc(C[C@H](NC(=O)c4ccc(C(C)(C)CC)cc4)C(=O)N4CCC[C@H]4C(=O)O)cc3)nc2)cc1` [Compound 1082], the EC50 under setting [2] lay in the range of 0.8 to 2.5 µM.
As for `CCCCCCCOc1ccc(-c2cnc(-c3ccc(C[C@H](NC(=O)c4ccc(C(C)(C)C)s4)C(=O)NC4CNC4)cc3)nc2)cc1` [Compound 985], the half-maximal effective concentration (EC50) under setting [2] was in the range of 2.5 to 5 µM.
Take `C[C@@H](NC(=O)[C@H](Cc1ccc(-c2ncc(-c3ccc(-c4ccc(Cl)cc4)cc3)cn2)cc1)NC(=O)c1ccc(C(C)(C)C)s1)C(=O)O` [Compound 1315]: the half-maximal effective concentration (EC50) under setting [1] was < 0.8 µM.
Regarding `CCCCOc1ccc(C(=O)N[C@@H](Cc2ccc(-c3ncc(-c4ccc(OCCCC(C)C)cc4)cn3)cc2)C(=O)N2CC(C(=O)O)C2)cc1` [Compound 1243], the EC50 under setting [1] lay within 0.8 to 2.5 µM.
In the case of `CCCCCCCOc1ccc(-c2cnc(-c3ccc(C[C@H](NC(=O)c4ccc(C(C)(C)C)s4)C(=O)N4CCCN(C)CC4)cc3)nc2)cc1` [Compound 963], under setting [2], the EC50 is 5 to 10 µM.
Still for that read-out and setting: to `C[C@@H](NC(=O)[C@H](Cc1ccc(-c2ncc(-c3ccc(C(C)(C)C)cc3)cn2)cc1)NC(=O)c1ccc(C(C)(C)C)cc1)C(=O)O` [Compound 720] belongs 2.5 to 5 µM.
Take `CCCCCCCOc1ccc(-c2cnc(-c3ccc(C[C@H](NC(=O)c4ccc(C(C)(C)C)cc4)C(=O)NC(C(=O)O)c4nc(C)oc4C)cc3)nc2)cc1` (stereo partly shown) [Compound 488]: under setting [2], the EC50 was 0.8 to 2.5 µM.
